The values below come from patent US20220323406A1, “METHODS AND COMPOSITIONS FOR DIFFERENTIATING STEM CELLS” (Massachusetts Institute of Technology, priority 2019, published 2022).

Structures can show the parent of a compound that is named as a salt.

In one assay the test system is ENR+CD organoids. Kind of assay: Primary screen: ATP (CellTiter-Glo 3D, CTG) cell number/viability, 2.5-D 384-well ENR+CD organoids.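 For all read-outs here: compounds given at plating and again on day 3 over a 6-day differentiation from ENR+CV stem-cell-enriched precursors, ATP measured on day 6, plate median as control.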 The note with it: primary screen; for Dose.FC.CTG: FC relative to plate median; for Z.CTG: standard z score.
The subject of assay [1] is ENR+CD organoids (ISC to Paneth cell differentiation). Kind of assay: Primary screen: basal (non-stimulated) lysozyme secretion LYZ.NS, 2.5-D 384-well ENR+CD organoid differentiation. Type of assay: cell-based, mouse. The note with it: primary screen; for Dose.FC.LYZ.NS: FC relative to plate median; for Z.LYZ.NS: standard z score. An excerpt: (§1) High-throughput screening.

For assay [2] the test system is unchanged. Kind of assay: Primary screen: CCh-stimulated lysozyme secretion LYZ.S, 2.5-D 384-well ENR+CD organoid differentiation. In kind it is cell-based, mouse. The note with it: primary screen, FC relative to plate median.
Description: as §1

In the case of `O=C(Nc1ccccc1-c1cn2c(CN3CCNCC3)csc2n1)c1cnc2ccccc2n1` [SRT1720], the Dose.FC.CTG in the assay on ENR+CD organoids (dose 0.08 uM) is on record as 0.529 log2 fold change; with ENR+CD organoids (dose 0.40 uM) it was 0.394 log2 fold change; with ENR+CD organoids (dose 2.00 uM), 0.339 log2 fold change; in the assay on ENR+CD organoids (dose 10.00 uM), −1.016 log2 fold change. Also, the Z.CTG in the assay with ENR+CD organoids (dose 0.08 uM) is 1.264; in the assay with ENR+CD organoids (dose 0.40 uM), 0.940; in the assay with ENR+CD organoids (dose 2.00 uM), 0.810; with ENR+CD organoids (dose 10.00 uM) it was −2.427. Besides, the Dose.FC.LYZ.NS is recorded as 0.172 log2 fold change in assay [1] (dose 0.08 uM), 0.112 log2 fold change in assay [1] (dose 0.40 uM), 0.070 log2 fold change in assay [1] (dose 2.00 uM) and −0.104 log2 fold change in assay [1] (dose 10.00 uM). The Z.LYZ.NS is listed as 1.495 in assay [1] (dose 0.08 uM), 0.972 in assay [1] (dose 0.40 uM), 0.613 in assay [1] (dose 2.00 uM) and −0.906 in assay [1] (dose 10.00 uM). Besides, the Dose.FC.LYZ.S is on record as 0.190 log2 fold change in assay [2] (dose 0.08 uM), 0.099 log2 fold change in assay [2] (dose 0.40 uM), 0.051 log2 fold change in assay [2] (dose 2.00 uM) and −0.193 log2 fold change in assay [2] (dose 10.00 uM).
As to `COc1c(C)c(C(=O)c2ccc(N)c(C(=O)[O-])c2)n2ccccc12.[Na+]` [SSR128129E], the Dose.FC.CTG is 0.088 log2 fold change in the assay with ENR+CD organoids (dose 0.08 uM), 0.228 log2 fold change in the assay with ENR+CD organoids (dose 0.40 uM), 0.122 log2 fold change with ENR+CD organoids (dose 2.00 uM) and −0.026 log2 fold change in the assay on ENR+CD organoids (dose 10.00 uM). Besides, the Z.CTG with ENR+CD organoids (dose 0.08 uM) is recorded as 0.210; in the assay on ENR+CD organoids (dose 0.40 uM), 0.545; in the assay on ENR+CD organoids (dose 2.00 uM), 0.291; in the assay with ENR+CD organoids (dose 10.00 uM), −0.063. Further, the Dose.FC.LYZ.NS is recorded as 0.093 log2 fold change in assay [1] (dose 0.08 uM), 0.039 log2 fold change in assay [1] (dose 0.40 uM), 0.030 log2 fold change in assay [1] (dose 2.00 uM) and −0.098 log2 fold change in assay [1] (dose 10.00 uM). Further, the Z.LYZ.NS in assay [1] (dose 0.08 uM) is 0.807; in assay [1] (dose 0.40 uM), 0.339; in assay [1] (dose 2.00 uM), 0.257; in assay [1] (dose 10.00 uM) it was −0.850. Besides, the Dose.FC.LYZ.S was 0.086 log2 fold change in assay [2] (dose 0.08 uM), 0.122 log2 fold change in assay [2] (dose 0.40 uM), 0.023 log2 fold change in assay [2] (dose 2.00 uM) and −0.095 log2 fold change in assay [2] (dose 10.00 uM).
Take `Cc1ccc(S(=O)(=O)Cc2nc(-c3ccc(C(=O)NCc4cccnc4)cc3)oc2C)cc1` [STF-118804]: the Dose.FC.CTG in the assay with ENR+CD organoids (dose 0.08 uM) is given as −0.151 log2 fold change; with ENR+CD organoids (dose 0.40 uM) it was −1.401 log2 fold change; with ENR+CD organoids (dose 2.00 uM), −0.916 log2 fold change; in the assay on ENR+CD organoids (dose 10.00 uM), −1.338 log2 fold change. The Z.CTG was −0.360 with ENR+CD organoids (dose 0.08 uM), −3.346 in the assay with ENR+CD organoids (dose 0.40 uM), −2.189 in the assay on ENR+CD organoids (dose 2.00 uM) and −3.195 with ENR+CD organoids (dose 10.00 uM). For the same molecule, the Dose.FC.LYZ.NS is on record as −0.155 log2 fold change in assay [1] (dose 0.08 uM), −0.210 log2 fold change in assay [1] (dose 0.40 uM), −0.172 log2 fold change in assay [1] (dose 2.00 uM) and −0.177 log2 fold change in assay [1] (dose 10.00 uM). Also, the Z.LYZ.NS is reported as −1.349 in assay [1] (dose 0.08 uM), −1.824 in assay [1] (dose 0.40 uM), −1.502 in assay [1] (dose 2.00 uM) and −1.541 in assay [1] (dose 10.00 uM). Also, the Dose.FC.LYZ.S in assay [2] (dose 0.08 uM) is on record as −0.257 log2 fold change; in assay [2] (dose 0.40 uM), −0.212 log2 fold change; in assay [2] (dose 2.00 uM) it was −0.271 log2 fold change; in assay [2] (dose 10.00 uM), −0.300 log2 fold change.
With `Cc1[nH]c(/C=C2\C(=O)Nc3ccc(S(=O)(=O)N(C)c4cccc(Cl)c4)cc32)c(C)c1C(=O)N1CCN(C)CC1` [SU11274], the Dose.FC.CTG is 0.357 log2 fold change with ENR+CD organoids (dose 0.08 uM), 0.270 log2 fold change in the assay on ENR+CD organoids (dose 0.40 uM), 0.058 log2 fold change in the assay on ENR+CD organoids (dose 2.00 uM) and −0.818 log2 fold change in the assay on ENR+CD organoids (dose 10.00 uM). In addition, the Dose.FC.LYZ.NS was 0.084 log2 fold change in assay [1] (dose 0.08 uM), 0.120 log2 fold change in assay [1] (dose 0.40 uM), 0.005 log2 fold change in assay [1] (dose 2.00 uM) and −0.207 log2 fold change in assay [1] (dose 10.00 uM). Moreover, the Z.LYZ.NS in assay [1] (dose 0.08 uM) is recorded as 0.735; in assay [1] (dose 0.40 uM) it was 1.043; in assay [1] (dose 2.00 uM), 0.047; in assay [1] (dose 10.00 uM), −1.804. Besides, the Dose.FC.LYZ.S in assay [2] (dose 0.08 uM) was 0.115 log2 fold change; in assay [2] (dose 0.40 uM), 0.298 log2 fold change; in assay [2] (dose 2.00 uM), 0.008 log2 fold change; in assay [2] (dose 10.00 uM), −0.300 log2 fold change.
For `O=C(/C=C/c1ccccc1)NC(NC(=S)Nc1ccc(Cl)cc1)C(Cl)(Cl)Cl` (centres unmarked) [Sal003], the Dose.FC.CTG with ENR+CD organoids (dose 0.08 uM) is reported as 0.191 log2 fold change; with ENR+CD organoids (dose 0.40 uM), 0.155 log2 fold change; with ENR+CD organoids (dose 2.00 uM), 0.196 log2 fold change; in the assay on ENR+CD organoids (dose 10.00 uM), −0.829 log2 fold change. The Z.CTG is 0.456 in the assay with ENR+CD organoids (dose 0.08 uM), 0.370 with ENR+CD organoids (dose 0.40 uM), 0.468 with ENR+CD organoids (dose 2.00 uM) and −1.981 with ENR+CD organoids (dose 10.00 uM). The Dose.FC.LYZ.NS in assay [1] (dose 0.08 uM) is 0.116 log2 fold change; in assay [1] (dose 0.40 uM) it was 0.183 log2 fold change; in assay [1] (dose 2.00 uM), 0.077 log2 fold change; in assay [1] (dose 10.00 uM) it was −0.246 log2 fold change. The Z.LYZ.NS in assay [1] (dose 0.08 uM) was 1.013; in assay [1] (dose 0.40 uM), 1.595; in assay [1] (dose 2.00 uM), 0.670; in assay [1] (dose 10.00 uM) it was −2.142. Besides, the Dose.FC.LYZ.S in assay [2] (dose 0.08 uM) is on record as 0.092 log2 fold change; in assay [2] (dose 0.40 uM) it was 0.067 log2 fold change; in assay [2] (dose 2.00 uM), 0.040 log2 fold change; in assay [2] (dose 10.00 uM) it was −0.408 log2 fold change.
As to `Cn1cnc2c(F)c(Nc3ccc(Br)cc3Cl)c(C(=O)NOCCO)cc21` [Selumetinib (AZD6244)], the Dose.FC.CTG with ENR+CD organoids (dose 0.08 uM) is 0.164 log2 fold change; with ENR+CD organoids (dose 0.40 uM), −0.165 log2 fold change; in the assay on ENR+CD organoids (dose 2.00 uM) it was −0.257 log2 fold change; in the assay on ENR+CD organoids (dose 10.00 uM), −0.852 log2 fold change. In addition, the Z.CTG with ENR+CD organoids (dose 0.08 uM) is given as 0.393; with ENR+CD organoids (dose 0.40 uM) it was −0.395; in the assay on ENR+CD organoids (dose 2.00 uM), −0.613; in the assay with ENR+CD organoids (dose 10.00 uM) it was −2.035. Also, the Dose.FC.LYZ.NS in assay [1] (dose 0.08 uM) is recorded as 0.021 log2 fold change; in assay [1] (dose 0.40 uM), −0.022 log2 fold change; in assay [1] (dose 2.00 uM), −0.097 log2 fold change; in assay [1] (dose 10.00 uM), −0.140 log2 fold change. For the same molecule, the Z.LYZ.NS in assay [1] (dose 0.08 uM) is recorded as 0.181; in assay [1] (dose 0.40 uM), −0.188; in assay [1] (dose 2.00 uM) it was −0.847; in assay [1] (dose 10.00 uM), −1.220. For the same molecule, the Dose.FC.LYZ.S in assay [2] (dose 0.08 uM) is 0.004 log2 fold change; in assay [2] (dose 0.40 uM) it was −0.047 log2 fold change; in assay [2] (dose 2.00 uM), −0.175 log2 fold change; in assay [2] (dose 10.00 uM) it was −0.211 log2 fold change.
In the case of `CC(C)[C@H](O)C(=O)N[C@@H](C)C(=O)N[C@@H]1C(=O)N(C)CCc2ccccc21` [Semagacestat (LY450139)], the Dose.FC.CTG with ENR+CD organoids (dose 0.08 uM) was 0.141 log2 fold change; in the assay on ENR+CD organoids (dose 0.40 uM), −0.207 log2 fold change; in the assay on ENR+CD organoids (dose 2.00 uM), −0.128 log2 fold change; with ENR+CD organoids (dose 10.00 uM), −0.856 log2 fold change. In addition, the Z.CTG with ENR+CD organoids (dose 0.08 uM) is recorded as 0.338; in the assay with ENR+CD organoids (dose 0.40 uM), −0.494; in the assay with ENR+CD organoids (dose 2.00 uM), −0.306; with ENR+CD organoids (dose 10.00 uM), −2.045. Also, the Dose.FC.LYZ.NS in assay [1] (dose 0.08 uM) is given as 0.017 log2 fold change; in assay [1] (dose 0.40 uM), −0.021 log2 fold change; in assay [1] (dose 2.00 uM), −0.081 log2 fold change; in assay [1] (dose 10.00 uM) it was −0.108 log2 fold change. The Z.LYZ.NS in assay [1] (dose 0.08 uM) is 0.151; in assay [1] (dose 0.40 uM), −0.181; in assay [1] (dose 2.00 uM), −0.704; in assay [1] (dose 10.00 uM) it was −0.942. Further, the Dose.FC.LYZ.S is on record as −0.014 log2 fold change in assay [2] (dose 0.08 uM), −0.006 log2 fold change in assay [2] (dose 0.40 uM), −0.081 log2 fold change in assay [2] (dose 2.00 uM) and −0.162 log2 fold change in assay [2] (dose 10.00 uM).
`CN[C@H]1CC[C@@H](c2ccc(Cl)c(Cl)c2)c2ccccc21` [Sertraline HCl]: the Dose.FC.CTG with ENR+CD organoids (dose 0.08 uM) is listed as −0.079 log2 fold change; in the assay with ENR+CD organoids (dose 0.40 uM), 0.087 log2 fold change; in the assay on ENR+CD organoids (dose 2.00 uM), 0.066 log2 fold change; in the assay with ENR+CD organoids (dose 10.00 uM) it was 0.043 log2 fold change. The Dose.FC.LYZ.NS was −0.026 log2 fold change in assay [1] (dose 0.08 uM), −0.082 log2 fold change in assay [1] (dose 0.40 uM), 0.052 log2 fold change in assay [1] (dose 2.00 uM) and −0.005 log2 fold change in assay [1] (dose 10.00 uM). In addition, the Z.LYZ.NS in assay [1] (dose 0.08 uM) was −0.227; in assay [1] (dose 0.40 uM) it was −0.714; in assay [1] (dose 2.00 uM), 0.450; in assay [1] (dose 10.00 uM) it was −0.044. The Dose.FC.LYZ.S in assay [2] (dose 0.08 uM) was −0.048 log2 fold change; in assay [2] (dose 0.40 uM), −0.076 log2 fold change; in assay [2] (dose 2.00 uM) it was 0.023 log2 fold change; in assay [2] (dose 10.00 uM) it was −0.021 log2 fold change.
